According to US20080091140A1, “Cardiac Reperfusion Methods and Devices” (priority 2006, published 2008):
Marks after values point to notes of the source that are not given here.

Legend:
Assay type in all cases: in vivo, Female juvenile domestic swine
[1] = test system: acute regional myocardial ischemia and reperfusion (LAD occlusion); assay: Hemodynamic assessment (rate pressure product) in swine LAD ischemia-reperfusion with Trans Guide wire Therapy; conditions: for rate pressure product (RPP), Pre-sacrifice: after 2 h reperfusion, chloramphenicol 10 mg TGT plus 40 mg/Kg IV just prior to reperfusion, p=0.02 vs saline
Procedure: (§1) Methods: Female juvenile pigs (n=14) were used. All animals received 250 mg of aspirin and 100 U/Kg of heparin IV. Tying the mid Left Anterior Descending Artery (“LAD”) after distal TGT (Trans Guide wire Therapy) wire placement induced acute myocardial ischemia. The TGT system consisted of a 0.014 inch nitinol torquable guide wire and removable stopcock. The distal 30 mm tip was flexible and radio-opaque. Immediately proximal to the tip were delivery holes to facilitate TGT delivery. TGT was delivered after 30 minutes of ischemia. The distal coronary vascular bed was visualized by injection with radiographic contrast (n=2) and Evans blue (n=2). […] Suture removal allowed 2 hours of reperfusion prior to sacrifice. Hemodynamics expressed as the heart rate blood pressure product (RPP) was assessed continuously. Echocardiographic LV ejection fraction (LVEF) was measured at baseline, end of ischemia (pre-TGT) and pre-sacrifice. Device success was defined as successful TGT delivery.
Animal Preparation: Female juvenile domestic swine, weight 30-50 kg, were studied. […] Anaesthesia was induced with an intramuscular injection of ketamine (20 mg/kg) followed by inhaled isoflurane (0.5-2.0%). After general anaesthesia the femoral artery was cannulated. A pulmonary artery cannula was positioned via the right internal jugular vein. All animals received 250 mg of IV aspirin and 100 U/Kg units of heparin intravenously to achieve an ACT above 250 s.
(§2) Interventional Coronary and Surgical Procedures: A 6F Hockey stick guide catheter cannulated the left main coronary artery. The TGT wire, flushed with heparin, was positioned in the distal left anterior descending (LAD) artery. After a midline sternotomy acute regional myocardial ischemia was induced by occluding the mid portion of the LAD with a surgical suture. Fluoroscopy ensured the suture was above the infusion ports of the TGT wire with distal TIMI 0 flow. Lidocaine was given as a bolus and infusion at the onset of ischemia and for the remainder of the experiment. TGT injection was performed at the end of a 30 minute ischemic period after which the suture was removed to allow reperfusion. Restoration of TIMI 3 flow was documented by cine-angiography. Animals were sacrificed after 2 hours of reperfusion and the hearts were harvested for immunohistochemistry.
Hemodynamic Assessment: There was continuous measurement of hemodynamic parameters. Cardiac output was measured immediately before and after ischemia and pre-sacrifice. Hemodynamic stability and contractility were supported medically by IV dopamine, and epinephrine to maintain MAP above 50 mmg. Boluses of atropine (1 mg) and lidocaine (100 mg) were given as appropriate for treatment of arrhythmias. […] Each administration of these drugs was recorded as 1 arbitrary unit. […]

[2] = test system: acute regional myocardial ischemia and reperfusion (LAD occlusion); assay: Supportive drug therapy required during ischemia-reperfusion (arbitrary units); conditions: chloramphenicol 10 mg TGT plus 40 mg/Kg IV
Procedure: as §1, §2
Hemodynamic Assessment: There was continuous measurement of hemodynamic parameters. Cardiac output was measured immediately before and after ischemia and pre-sacrifice. Hemodynamic stability and contractility were supported medically by IV dopamine, and epinephrine to maintain MAP above 50 mmg. Boluses of atropine (1 mg) and lidocaine (100 mg) were given as appropriate for treatment of arrhythmias. IV calcium and bicarbonate were given in appropriate doses during cardiopulmonary resuscitation. Each administration of these drugs was recorded as 1 arbitrary unit.
The latter was prepared as 10 mg in 0.5 cc of saline for TGT in addition to 40 mg/Kg IV. Injections were performed just prior to reperfusion.

[3] = test system: acute regional myocardial ischemia and reperfusion (LAD occlusion); assay: Survival of the reperfusion period; conditions: of 5 chloramphenicol TGT treated animals, to sacrifice at 2 h
Procedure: as §1
Interventional Coronary and Surgical Procedures: A 6F Hockey stick guide catheter cannulated the left main coronary artery. The TGT wire, flushed with heparin, was positioned in the distal left anterior descending (LAD) artery. After a midline sternotomy acute regional myocardial ischemia was induced by occluding the mid portion of the LAD with a surgical suture. […]

[4] = test system: apoptosis; assay: TUNEL staining for apoptosis in heart tissue sections; conditions: heart tissue after 2 h reperfusion; non-discriminatory vs saline
[5] = test system: acute regional myocardial ischemia and reperfusion (LAD occlusion); assay: Echocardiographic LV ejection fraction
[6] = test system: Caspase 3; assay: Western blotting of infarct border area: Caspase 3; conditions: infarct border area after 2 h reperfusion, p=0.007 vs saline
Description: as §2, with “immunohistochemistry. Western Blotting: After cardiac harvest the infarct border area was immediately frozen in liquid nitrogen. […] Supernatant protein concentration was measured using a BCA assay kit (Pierce Laboratories). […] After 3 TBST washings the immunocomplexes were developed using an enhanced HPO/luminol chemiluminescence reaction, and recorded photographically (Hyper film ECL; Amersham) by 10 s to 3 min exposure. […] Quantification was performed using scanning densitometry with image J software.” for “immunohistochemistry.”

[7] = each administration recorded as 1 arbitrary unit, group sum

O=C(N[C@H](CO)[C@H](O)c1ccc([N+](=O)[O-])cc1)C(Cl)Cl [chloramphenicol]
rate pressure product (RPP), Pre-sacrifice [1]: 3720.0 (+/−510.2) | rate pressure product (RPP), Pre-sacrifice ([1]; listed as Chloramphenicol): 3720.0 +/− 510.2* | rate pressure product (RPP), Baseline ([1]; baseline, before ischemia and before TGT, chloramphenicol TGT group (n=5)): 3980.8 +/− 594.5 | rate pressure product (RPP), End of ischemia ([1]; end of 30 min ischemia, pre-TGT, chloramphenicol TGT group (n=5)): 2969.5 +/− 687.2 | supportive therapy: Atropine [2, 7]: 2.5 arbitrary units | supportive therapy: Bicarbonate [2, 7]: 1 arbitrary units | supportive therapy: Dopamine [2, 7]: 1 arbitrary units | supportive therapy: Epinephrine [2, 7]: 1 arbitrary units | supportive therapy: Lidocaine [2, 7]: 4.5 arbitrary units | supportive therapy: calcium [2, 7]: 0 arbitrary units | supportive therapy / intravenous inotrope support, mean ([2]; mean (+/-), p=0.028 vs saline): 1.67 (+/−1.6) arbitrary units | supportive therapy: Total ([2]; sum over all support drugs): 10 arbitrary units | animals that survived the period of reperfusion [3]: 5 | TUNEL staining [4]: weakly positive | LV ejection fraction, end of ischemia ([5]; after 30 minute ischemia, pre-TGT, chloramphenicol TGT group): 27.3%+/−3.8 | LV ejection fraction, pre-sacrifice (after reperfusion) ([5]; after 2 h reperfusion, chloramphenicol 10 mg TGT plus 40 mg/Kg IV, p<0.001 vs end of ischemia): 43.3%+/−11.4 | caspase-3 band intensity by densitometry [6]: 346±110
